Where “and” joins values, the source holds several entries; their conditions need not be identical. Equal entries are not always repeated. Positions of bridges follow the written chain, without caps; N, C: chain ends. Non-standard residues stand in square brackets, D forms with d. Residues, ends and D or L forms follow the SMILES beside them. *: point of attachment. Ileψ(thiazoline)Cys = CC[C@H](C)[C@H](N)C1=N[C@H](C(=O)*)CS1; dOrn = NCCC[C@@H](N)C(=O)O
How the values were obtained:
Clostridium perfringens = assay type: in vivo, broiler chicks
[1] = TNBS-induced colitis, histopathology of colon; settings: day 5
[2] = TNBS-induced colitis, body weight
[3] = TNBS-induced colitis, colon length and weight; settings: Group 2, prednisolone 1 mg/kg/dose t.i.d.; day 5; individual animals
[4] = TNBS-induced colitis, video endoscopy colitis score
[5] = Group 2, prednisolone 1 mg/kg/dose t.i.d., mean per animal, scale 0-4 (Table 3)
[6] = Group 2, prednisolone 1 mg/kg/dose t.i.d. p.o. + TNBS, individual animals
[7] = Group 2, prednisolone 1 mg/kg/dose t.i.d., individual animals, scale 0-4 (Table 2)

Structure (SMILES): CC[C@H](C)[C@H](N)C1=N[C@H](C(=O)N[C@@H](CC(C)C)C(=O)N[C@H](CCC(=O)O)C(=O)N[C@H](C(=O)N[C@H]2CCCCNC(=O)[C@H](CC(N)=O)NC(=O)[C@@H](CC(=O)O)NC(=O)[C@H](Cc3cnc[nH]3)NC(=O)[C@@H](Cc3ccccc3)NC(=O)[C@H]([C@@H](C)CC)NC(=O)[C@@H](CCCN)NC2=O)[C@@H](C)CC)CS1 [BMD, bacitracin] ({Ileψ(thiazoline)Cys}-L[dE]IK[dOrn]I[dF]H[dD]N; lactam 4-C)
- necrotic enteritis (NE) of the GI tract, figure given for BMD (Clostridium perfringens; BMD positive control in water, P<0.05, meaning of figure unclear): 93%
- mortality normalized to untreated (100%) (Clostridium perfringens; total aggregate deaths up to and including day 14): 45%

Structure (SMILES): C[C@]12C=CC(=O)C=C1CC[C@@H]1[C@@H]2[C@@H](O)C[C@@]2(C)[C@H]1CC[C@]2(O)C(=O)CO [Prednisolone]
- Histology Scores Edema [1, 5]: 1.20 (4×) and 0.83 (2×) and 0.50 and 0.67 and 1.40 and 0.80
- Histology Scores Inflam [1, 5]: 1.60 and 1.40 and 1.00 (3×) and 0.83 (2×) and 0.33 and 0.67 and 0.80
- Histology Scores Necrosis [1, 5]: 1.00 and 0.80 (3×) and 0.40 and 0.67 and 0.00 and 0.33 and 0.50 and 0.60
- edema scores vs vehicle control ([1]; prednisolone, p=0.004): significantly lower
- sum pathology scores vs vehicle control ([1]; prednisolone, p=0.007): significantly lower
- Animal Weights Day 0 [2, 6]: 23.09 and 25.03 and 23.28 and 23.97 and 22.64 and 24.58 and 24.61 and 25.53 and 25.1 and 24.95
- Animal Weights Day 1 [2, 6]: 20.19 and 21.15 and 20.41 and 20.78 and 20.62 and 21.89 and 22.21 and 22.35 (2×) and 22.44
- Animal Weights Day 2 [2, 6]: 19.12 and 20.17 and 19.33 and 19.52 and 20.33 and 20.83 and 22.81 and 21.35 and 22.46 and 23.66
- Animal Weights Day 3 [2, 6]: 18.77 and 19.45 and 18.6 and 19.09 and 22.59 and 21.38 and 23.44 and 21.24 and 23.92 and 24.77
- Animal Weights Day 4 [2, 6]: 18.36 and 19.11 and 19.32 and 18.56 and 22.41 and 21.65 and 23.51 and 22.09 and 23.48 and 23.97
- Animal Weights Day 5 [2, 6]: 19.28 and 20.1 and 21.49 and 19.89 and 22.48 and 22.05 and 24.03 and 23.91 and 24.24 and 24.3
- Animal Weights Day −1 [2, 6]: 23.94 and 25.76 and 24.35 and 24.86 and 24.02 and 25.97 and 26.64 and 26.78 and 27.15 and 27.02
- average weight loss from starting weight ([2]; day 2, prednisolone 1 mg/kg/dose t.i.d. p.o.): 18.3%
- Colon Length [3]: 8 (3×) and 6.4 and 8.5 and 7.2 (2×) and 7 and 6.5 and 7.5
- Colon Weight [3]: 0.334 and 0.344 and 0.392 and 0.386 and 0.248 and 0.276 and 0.24 and 0.318 and 0.35 and 0.224
- Endo Score Day 3 [4, 7]: 2 (4×) and 1 (2×) and 3 and 4 (3×)
- Endo Score Day 5 [4, 7]: 3 (3×) and 2 (5×) and 4 and 1
- colitis score of representative endoscopy image ([4]; day 5, prednisolone, scale 0-4, vehicle 3): 2
- mean colitis scores vs vehicle control ([4]; prednisolone 1 mg/kg/dose t.i.d., day 3 p=0.010, day 5 p=0.027): significantly reduced mean colitis scores

— patent US20190070214A1 (priority 2016, published 2019)
